Laboratory results: patent US20140363383A1, “AEROSOL FORMULATION FOR COPD” (Chiesi Farmaceutici S.p.A, priority 2009, published 2014)

Experiment: Compatibility with other active ingredients, especially formoterol
Type: physicochemical
Settings: versus glycopyrronium bromide

Structure (SMILES): C[N+]1(C)CCC(OC(=O)C(O)(c2ccccc2)C2CCCC2)C1.[Cl-] (stereo not shown) [glycopyrronium chloride, 3-[(cyclopentylhydroxyphenylacetyl)oxy]-1,1-dimethylpyrrolidinium chloride]
- compatibility with other active ingredients: better compatibility with other active ingredients
